Experimental data taken from ChEMBL document CHEMBL1131398, “First synthesis of alternating SATE-phosphotriester/phosphodiester prooligonucleotides on solid support” (Bioorg Med Chem Lett, 1998).

Experiments:
[1] = Half-life in the presence of pig liver esterase(PLE) was evaluated; […]; type: ADME, Sus scrofa; details: in vitro
[2] = Lipophilicity of compound evaluated by HPLC retention time on reverse phase C18 column; type: physicochemical
[3] = Half-life in the presence of total cell extract(TCE) was evaluated.; type: ADME
[4] = Half-life in the presence of pig liver esterase(PLE) was evaluated.; type: ADME, tissue-based, Sus scrofa

Cc1cn([C@H]2C[C@H](OP(=O)(O)S)[C@@H](COP(=S)(OCCSC(=O)C(C)(C)C)O[C@H]3C[C@H](n4cc(C)c(=O)[nH]c4=O)O[C@@H]3COP(=O)(S)O[C@H]3C[C@H](n4cc(C)c(=O)[nH]c4=O)O[C@@H]3COP(=S)(OCCSC(=O)C(C)(C)C)O[C@H]3C[C@H](n4cc(C)c(=O)[nH]c4=O)O[C@@H]3COP(=O)(S)O[C@H]3C[C@H](n4cc(C)c(=O)[nH]c4=O)O[C@@H]3COP(=S)(OCCSC(=O)C(C)(C)C)O[C@H]3C[C@H](n4cc(C)c(=O)[nH]c4=O)O[C@@H]3COP(=O)(S)O[C@H]3C[C@H](n4cc(C)c(=O)[nH]c4=O)O[C@@H]3COP(=S)(OCCSC(=O)C(C)(C)C)O[C@H]3C[C@H](n4cc(C)c(=O)[nH]c4=O)O[C@@H]3COP(=O)(S)O[C@H]3C[C@H](n4cc(C)c(=O)[nH]c4=O)O[C@@H]3COP(=S)(OCCSC(=O)C(C)(C)C)O[C@H]3C[C@H](n4cc(C)c(=O)[nH]c4=O)O[C@@H]3COP(=O)(S)O[C@H]3C[C@H](n4cc(C)c(=O)[nH]c4=O)O[C@@H]3COP(=S)(OCCSC(=O)C(C)(C)C)O[C@H]3C[C@H](n4cc(C)c(=O)[nH]c4=O)O[C@@H]3CO)O2)c(=O)[nH]c1=O (stereo not given in full)
T1/2 [1]: Stable
Retention time [2]: 58.4 min
half-life [3]: 17 h

Cc1cn([C@H]2C[C@H](OP(=O)(O)S)[C@@H](COP(=O)(OCCSC(=O)C(C)(C)C)O[C@H]3C[C@H](n4cc(C)c(=O)[nH]c4=O)O[C@@H]3COP(=O)(S)O[C@H]3C[C@H](n4cc(C)c(=O)[nH]c4=O)O[C@@H]3COP(=O)(OCCSC(=O)C(C)(C)C)O[C@H]3C[C@H](n4cc(C)c(=O)[nH]c4=O)O[C@@H]3COP(=O)(S)O[C@H]3C[C@H](n4cc(C)c(=O)[nH]c4=O)O[C@@H]3COP(=O)(OCCSC(=O)C(C)(C)C)O[C@H]3C[C@H](n4cc(C)c(=O)[nH]c4=O)O[C@@H]3COP(=O)(S)O[C@H]3C[C@H](n4cc(C)c(=O)[nH]c4=O)O[C@@H]3COP(=O)(OCCSC(=O)C(C)(C)C)O[C@H]3C[C@H](n4cc(C)c(=O)[nH]c4=O)O[C@@H]3COP(=O)(S)O[C@H]3C[C@H](n4cc(C)c(=O)[nH]c4=O)O[C@@H]3COP(=O)(OCCSC(=O)C(C)(C)C)O[C@H]3C[C@H](n4cc(C)c(=O)[nH]c4=O)O[C@@H]3COP(=O)(S)O[C@H]3C[C@H](n4cc(C)c(=O)[nH]c4=O)O[C@@H]3COP(=O)(OCCSC(=O)C(C)(C)C)O[C@H]3C[C@H](n4cc(C)c(=O)[nH]c4=O)O[C@@H]3CO)O2)c(=O)[nH]c1=O (stereo not given in full)
T1/2 [1]: Stable
Retention time [2]: 51.9 min
half-life [3]: 3 h

Cc1cn([C@H]2C[C@H](OP(=O)(O)O)[C@@H](COP(=O)(OCCSC(=O)C(C)(C)C)O[C@H]3C[C@H](n4cc(C)c(=O)[nH]c4=O)O[C@@H]3COP(=O)(O)O[C@H]3C[C@H](n4cc(C)c(=O)[nH]c4=O)O[C@@H]3COP(=O)(OCCSC(=O)C(C)(C)C)O[C@H]3C[C@H](n4cc(C)c(=O)[nH]c4=O)O[C@@H]3COP(=O)(O)O[C@H]3C[C@H](n4cc(C)c(=O)[nH]c4=O)O[C@@H]3COP(=O)(OCCSC(=O)C(C)(C)C)O[C@H]3C[C@H](n4cc(C)c(=O)[nH]c4=O)O[C@@H]3COP(=O)(O)O[C@H]3C[C@H](n4cc(C)c(=O)[nH]c4=O)O[C@@H]3COP(=O)(OCCSC(=O)C(C)(C)C)O[C@H]3C[C@H](n4cc(C)c(=O)[nH]c4=O)O[C@@H]3COP(=O)(O)O[C@H]3C[C@H](n4cc(C)c(=O)[nH]c4=O)O[C@@H]3COP(=O)(OCCSC(=O)C(C)(C)C)O[C@H]3C[C@H](n4cc(C)c(=O)[nH]c4=O)O[C@@H]3COP(=O)(O)O[C@H]3C[C@H](n4cc(C)c(=O)[nH]c4=O)O[C@@H]3COP(=O)(OCCSC(=O)C(C)(C)C)O[C@H]3C[C@H](n4cc(C)c(=O)[nH]c4=O)O[C@@H]3CO)O2)c(=O)[nH]c1=O (stereo not given in full)
T1/2 [1]: Stable
Retention time [2]: 48.8 min
half-life [3]: 1 h

CO[C@@H]1[C@H](OP(=O)(O)O)[C@@H](COP(=O)(O)O[C@H]2[C@@H](OC)[C@H](n3ccc(=O)[nH]c3=O)O[C@@H]2COP(=O)(O)O[C@H]2[C@@H](OC)[C@H](n3ccc(=O)[nH]c3=O)O[C@@H]2COP(=O)(OCCSC(=O)C(C)(C)C)O[C@H]2C[C@H](n3cc(C)c(=O)[nH]c3=O)O[C@@H]2COP(=O)(OCCSC(=O)C(C)(C)C)O[C@H]2C[C@H](n3cc(C)c(=O)[nH]c3=O)O[C@@H]2COP(=O)(OCCSC(=O)C(C)(C)C)O[C@H]2C[C@H](n3cc(C)c(=O)[nH]c3=O)O[C@@H]2COP(=O)(OCCSC(=O)C(C)(C)C)O[C@H]2C[C@H](n3cc(C)c(=O)[nH]c3=O)O[C@@H]2COP(=O)(OCCSC(=O)C(C)(C)C)O[C@H]2C[C@H](n3cc(C)c(=O)[nH]c3=O)O[C@@H]2COP(=O)(OCCSC(=O)C(C)(C)C)O[C@H]2C[C@H](n3cc(C)c(=O)[nH]c3=O)O[C@@H]2COP(=O)(O)O[C@H]2[C@@H](OC)[C@H](n3cc(C)c(=O)[nH]c3=O)O[C@@H]2COP(=O)(O)O[C@H]2[C@@H](OC)[C@H](n3ccc(=O)[nH]c3=O)O[C@@H]2COP(=O)(O)O[C@H]2[C@@H](OC)[C@H](n3ccc(=O)[nH]c3=O)O[C@@H]2CO)O[C@H]1n1ccc(=O)[nH]c1=O (stereo not given in full)
Retention time [2]: 54.7 min
half-life [4]: 5 min
half-life [3]: 0.25 h

Cc1cn([C@H]2C[C@H](OP(=O)(O)OC[C@H]3O[C@@H](n4cc(C)c(=O)[nH]c4=O)C[C@@H]3OP(=S)(OCCSC(=O)C(C)(C)C)OC[C@H]3O[C@@H](n4cc(C)c(=O)[nH]c4=O)C[C@@H]3OP(=O)(O)OC[C@H]3O[C@@H](n4cc(C)c(=O)[nH]c4=O)C[C@@H]3OP(=S)(OCCSC(=O)C(C)(C)C)OC[C@H]3O[C@@H](n4cc(C)c(=O)[nH]c4=O)C[C@@H]3OP(=O)(O)OC[C@H]3O[C@@H](n4cc(C)c(=O)[nH]c4=O)C[C@@H]3OP(=S)(OCCSC(=O)C(C)(C)C)OC[C@H]3O[C@@H](n4cc(C)c(=O)[nH]c4=O)C[C@@H]3OP(=O)(O)OC[C@H]3O[C@@H](n4cc(C)c(=O)[nH]c4=O)C[C@@H]3OP(=S)(OCCSC(=O)C(C)(C)C)OC[C@H]3O[C@@H](n4cc(C)c(=O)[nH]c4=O)C[C@@H]3OP(=O)(O)OC[C@H]3O[C@@H](n4cc(C)c(=O)[nH]c4=O)C[C@@H]3OP(=S)(OCCSC(=O)C(C)(C)C)OC[C@H]3O[C@@H](n4cc(C)c(=O)[nH]c4=O)C[C@@H]3OP(=O)(O)OC[C@H]3O[C@@H](n4cc(C)c(=O)[nH]c4=O)C[C@@H]3OP(O)(=S)OCCSC(=O)C(C)(C)C)[C@@H](CO)O2)c(=O)[nH]c1=O (stereo not given in full)
T1/2 [1]: Stable
Retention time [2]: 51.7 min
half-life [3]: 2.5 h
